Source: US5200422A, “Benzimidazole derivatives, their preparation and use” (priority 1991, dated 1993)
Where two headings read alike, the source gives them in different places.

Key:
Format in all cases: cell-based
BKCa channel [1] = biological target: BKCa channel (Bos taurus, UniProt Q28204); experiment: Patch-clamp, cultured bovine aortic smooth muscle cells
Procedure: (§1) All experiments were performed with patch-clamp technique (Hamill et al., Pflugers Arch. 391, 85-100 (1981). The ion composition of the internal solution was (in mM) 4 NaCl, 140 KCl, 1 CaCl2, 1 MgCl2, 2 EGTA, 10 HEPES and the external solution contained 140 NaCl, 4 KCl, 2 CaCl2, 1 MgCl2 and 10 HEPES.

BKCa channel [2] = experiment: Single channel experiments, inside-out patches of cerebellar granule cell membrane
Procedure: as §1
In inside-out patches of cerebellar granule cell membrane single BKCa channels were activated by for example 5-trifluoromethyl-1-(5-chloro-2-hydroxyphenyl)-1,3-dihydro-2H-benzimidazole-2-one (3-10 μM), 5-trifluoromethyl-I-(2-hydroxyphenyl)-1,3-dihydro-2H-benzimidazole-2-one ([…]), 5-trifluoromethyl-1-(5-phenyl-2-hydroxyphenyl)-1,3-dihydro-2H-benzimidazole-2-one (3-30 μM). […] No effect was found on the delayed rectifier K^+ channel or on the Cl^- channels also present in the patches.
(§2) The BKCa channel in granule cells has been studied in symmetric 144 mM K^+, and under these conditions the average conductance is 154 pS (76 pS with 4 mM external K^+).

160-180 pS BKCa channel = experiment: Patch-clamp, cultured guinea pig tracheal smooth muscle cells
Procedure: as §1

[3] = system: N1E-115 neuroblastoma cells; experiment: Whole cell recordings: membrane potential in current clamp mode; conditions: 30 μM to the bath
Procedure: as §1
The membrane potential of N1E-115 neuroblastoma cells was determined in whole-cell recordings using current clamp mode (HEKA EPC-9 patch-clamp amplifier) Due to the high-resistance seal and the large size of these cells, the recorded membrane potential stayed stable for periods of 30-60 min, although at somewhat depolarized values (-15--60 Mv).
The equilibrium potentials for K^+, Cl^-, and Na^+ in these experiments were -90 mV, 0 mV, and +90 mV, respectively (cf. ion composition above) Thus, since potassium is the only ion having a reversal potential more negative than the resting membrane potential, the observed hyperpolarization induced by the test compound must be explained through an increased potassium conductance.

BKCa channel [4] = experiment: Outside-out patches of granule cells, channel block; conditions: silent periods interdispersed with periods of low or normal activity
Procedure: as §1, §2

Sequence of BKCa channel (Bos taurus, UniProt Q28204) (Q28204 whole entry): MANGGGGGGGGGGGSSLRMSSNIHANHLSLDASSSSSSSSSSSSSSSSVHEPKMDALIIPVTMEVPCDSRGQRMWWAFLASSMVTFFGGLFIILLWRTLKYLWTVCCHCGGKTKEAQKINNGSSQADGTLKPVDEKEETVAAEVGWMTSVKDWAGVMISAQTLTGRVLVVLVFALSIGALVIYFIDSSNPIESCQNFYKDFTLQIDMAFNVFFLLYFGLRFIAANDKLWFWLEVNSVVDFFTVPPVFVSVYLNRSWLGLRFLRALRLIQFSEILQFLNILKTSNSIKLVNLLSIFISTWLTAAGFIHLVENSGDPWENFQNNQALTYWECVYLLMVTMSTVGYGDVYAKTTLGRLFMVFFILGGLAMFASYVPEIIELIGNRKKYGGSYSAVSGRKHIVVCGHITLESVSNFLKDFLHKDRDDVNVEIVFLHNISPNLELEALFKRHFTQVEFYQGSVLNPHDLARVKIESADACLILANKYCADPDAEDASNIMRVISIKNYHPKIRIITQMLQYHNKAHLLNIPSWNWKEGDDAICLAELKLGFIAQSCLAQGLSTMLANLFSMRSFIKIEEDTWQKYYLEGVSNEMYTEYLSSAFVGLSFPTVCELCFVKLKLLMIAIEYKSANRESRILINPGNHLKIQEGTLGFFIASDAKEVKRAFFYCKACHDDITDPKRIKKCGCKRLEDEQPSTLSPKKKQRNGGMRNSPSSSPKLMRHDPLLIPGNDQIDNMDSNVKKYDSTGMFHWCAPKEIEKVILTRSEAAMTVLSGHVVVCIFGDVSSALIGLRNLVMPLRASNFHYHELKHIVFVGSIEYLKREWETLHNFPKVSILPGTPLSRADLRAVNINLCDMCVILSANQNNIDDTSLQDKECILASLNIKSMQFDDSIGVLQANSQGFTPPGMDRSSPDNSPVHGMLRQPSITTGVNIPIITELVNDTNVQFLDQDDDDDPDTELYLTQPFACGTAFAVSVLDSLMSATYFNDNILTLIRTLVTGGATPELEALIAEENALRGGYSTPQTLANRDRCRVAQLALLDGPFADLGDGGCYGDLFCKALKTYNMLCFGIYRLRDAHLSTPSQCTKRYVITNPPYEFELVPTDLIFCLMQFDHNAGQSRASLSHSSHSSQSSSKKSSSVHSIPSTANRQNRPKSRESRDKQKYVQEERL
Sequence of BKCa channel (Bos taurus, UniProt Q28204) (Q28067 whole entry partner): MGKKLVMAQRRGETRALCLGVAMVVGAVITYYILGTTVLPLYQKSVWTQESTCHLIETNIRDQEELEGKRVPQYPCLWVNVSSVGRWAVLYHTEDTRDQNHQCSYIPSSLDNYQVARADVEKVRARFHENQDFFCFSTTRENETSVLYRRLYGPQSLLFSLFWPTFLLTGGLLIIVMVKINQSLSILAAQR

Oc1ccccc1-n1c(=S)[nH]c2cc(C(F)(F)F)ccc21 [1,3-dihydro-1-(2-hydroxyphenyl)-5-trifluoromethyl-2H-benzimidazole-2-thion]
activation of the BKCa channel (BKCa channel [1]; 3-30 μM): significantly activated

O=c1[nH]c2cc(C(F)(F)F)ccc2n1-c1cc2ccccc2cc1O [1,3-dihydro-1-(3-hydroxy-2-naphthyl)-5-trifluoromethyl-2H-benzimidazol-2-one]
activation of the BKCa channel (BKCa channel [1]; 3-30 μM): significantly activated

O=c1[nH]c2cc(Cl)c(Cl)cc2n1-c1cc(Cl)ccc1O [1,3-dihydro-1-(5-chloro-2-hydroxyphenyl)-5,6-dichloro-2H-benzimidazole-2-one]
activation of the BKCa channel (BKCa channel [1]; 3-30 μM): significantly activated

O=c1[nH]c2cc(C(F)(F)F)c([N+](=O)[O-])cc2n1-c1cc(Cl)cc([N+](=O)[O-])c1O [1,3-dihydro-1-(5-chloro-3-nitro-2-hydroxyphenyl)-5-trifluoromethyl-6-nitro-2H-benzimidazol-2-one]
activation of the BKCa channel (BKCa channel [1]; 1-3 μM): significantly activated

O=c1[nH]c2cc(C(F)(F)F)ccc2n1-c1cc(-c2ccccc2)ccc1O [1,3-dihydro-1-(5-phenyl-2-hydroxyphenyl)-5-trifluoromethyl-2H-benzimidazol-2-one]
activation of single BKCa channels (BKCa channel [2]; 3-30 μM): activated
activation of the BKCa channel (BKCa channel [1]; 3-30 μM): significantly activated

O=c1[nH]c2cc(C(F)(F)F)ccc2n1-c1cc(Cl)ccc1O [1-(5-chloro-2-hydroxyphenyl)-5-trifluoromethyl-1,3-dihydro-2H-benzimidazol-2-one]
activation of the BKCa channel (160-180 pS BKCa channel): potently activated
activation of single BKCa channels (BKCa channel [2]; 3-10 μM): activated
delay before hyperpolarization of the cells [3]: 1 to 3 min
average hyperpolarization ([3]; current clamp, SD=-5 Mv, n=8): -14 Mv
activation of the BKCa channel (BKCa channel [1]; 3-30 μM): significantly activated

O=c1[nH]c2cc(C(F)(F)F)ccc2n1-c1ccccc1O [5-trifluoromethyl-1,3-dihydro-1-(2-hydroxyphenyl)-2H-benzimidazol-2-one]
activation of single BKCa channels (BKCa channel [2]): activated

Charybdotoxin
block of the BKCa channel (BKCa channel [4]): blocks the channel
